This passage reports remaining binding results from patent publication US12479847B2 (DANA-FARBER CANCER INSTITUTE, INC., priority 2019, dated 2025).

Holding throughout (experiment): KINOMEscan (ScanMAX) kinase profiling
Holding throughout (assay type): binding

Test [1] deals with T1, panel of 468 kinases (Homo sapiens, UniProt Q9NWZ3).
T1 construct: purchased KINOMEscan (ScanMAX) service
T1 sequence (Q9NWZ3 1-460): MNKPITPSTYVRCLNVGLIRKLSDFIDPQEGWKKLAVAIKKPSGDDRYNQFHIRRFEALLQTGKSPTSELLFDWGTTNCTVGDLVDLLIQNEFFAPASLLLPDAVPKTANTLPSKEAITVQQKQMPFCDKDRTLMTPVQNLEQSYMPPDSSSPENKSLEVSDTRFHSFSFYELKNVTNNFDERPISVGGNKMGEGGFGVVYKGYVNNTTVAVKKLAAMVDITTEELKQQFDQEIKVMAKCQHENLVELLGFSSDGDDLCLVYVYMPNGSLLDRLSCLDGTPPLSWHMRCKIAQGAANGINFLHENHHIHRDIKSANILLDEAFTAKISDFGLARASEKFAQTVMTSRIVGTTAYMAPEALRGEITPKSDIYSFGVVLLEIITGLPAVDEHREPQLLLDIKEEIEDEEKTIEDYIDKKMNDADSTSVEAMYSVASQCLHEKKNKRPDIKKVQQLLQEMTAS
As to conditions: IRAK4; 1 μM; read-out: % control.

Test [2] has as its target T2, panel of 468 kinases (Homo sapiens, UniProt Q8TDX7).
T2 construct: purchased KINOMEscan (ScanMAX) service
As to conditions: NEK7; 1 μM; read-out: % control.

For test [3], the target named is T3, panel of 468 kinases (Homo sapiens, UniProt P00519, E255K).
T3 construct: purchased KINOMEscan (ScanMAX) service
As to conditions: ABL1(E255K)-phosphorylated; 1 μM; read-out: % control.

Test [4] has as its target T4, panel of 468 kinases (Homo sapiens, UniProt Q7L7X3).
T4 construct: purchased KINOMEscan (ScanMAX) service
T4 sequence (Q7L7X3 1-1001): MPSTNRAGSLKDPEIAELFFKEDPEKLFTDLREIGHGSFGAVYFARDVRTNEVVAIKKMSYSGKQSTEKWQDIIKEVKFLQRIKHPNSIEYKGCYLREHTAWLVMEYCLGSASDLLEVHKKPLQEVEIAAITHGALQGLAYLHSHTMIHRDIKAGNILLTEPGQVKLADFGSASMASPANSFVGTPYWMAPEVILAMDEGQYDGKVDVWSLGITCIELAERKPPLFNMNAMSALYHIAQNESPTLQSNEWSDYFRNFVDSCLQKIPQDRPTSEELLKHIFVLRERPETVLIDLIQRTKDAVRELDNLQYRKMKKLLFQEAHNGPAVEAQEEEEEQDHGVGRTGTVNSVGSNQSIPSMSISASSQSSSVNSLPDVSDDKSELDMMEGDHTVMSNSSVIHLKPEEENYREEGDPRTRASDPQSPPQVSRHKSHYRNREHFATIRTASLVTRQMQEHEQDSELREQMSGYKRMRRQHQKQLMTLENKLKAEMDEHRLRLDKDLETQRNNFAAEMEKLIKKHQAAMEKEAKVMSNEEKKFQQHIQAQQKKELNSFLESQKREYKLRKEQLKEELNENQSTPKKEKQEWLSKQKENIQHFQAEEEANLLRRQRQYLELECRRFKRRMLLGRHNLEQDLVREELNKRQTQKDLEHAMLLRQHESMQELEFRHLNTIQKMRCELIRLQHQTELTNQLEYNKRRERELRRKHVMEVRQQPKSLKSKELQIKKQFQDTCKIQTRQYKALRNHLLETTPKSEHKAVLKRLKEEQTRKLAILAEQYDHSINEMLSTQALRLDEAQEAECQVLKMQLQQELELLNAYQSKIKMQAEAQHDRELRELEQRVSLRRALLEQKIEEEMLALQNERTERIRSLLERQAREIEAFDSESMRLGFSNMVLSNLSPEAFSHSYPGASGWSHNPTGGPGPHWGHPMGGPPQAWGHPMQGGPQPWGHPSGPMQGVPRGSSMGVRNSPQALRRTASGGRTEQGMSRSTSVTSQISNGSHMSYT
The note with it: TAOK1; 1 μM; read-out: % control.

Test [5] has as its target T5, panel of 468 kinases (Homo sapiens, UniProt P10721).
T5 construct: purchased KINOMEscan (ScanMAX) service
As to conditions: 1 μM, read-out: % control.

For test [6], the target named is T6, panel of 468 kinases (Homo sapiens, UniProt P53350).
T6 construct: purchased KINOMEscan (ScanMAX) service
The note with it: PLK1; 1 μM; read-out: % control.

Molecules are shown by their SMILES. Like-named read-outs stand apart in the source and are kept apart here.

T5 sequence (P10721 26-976): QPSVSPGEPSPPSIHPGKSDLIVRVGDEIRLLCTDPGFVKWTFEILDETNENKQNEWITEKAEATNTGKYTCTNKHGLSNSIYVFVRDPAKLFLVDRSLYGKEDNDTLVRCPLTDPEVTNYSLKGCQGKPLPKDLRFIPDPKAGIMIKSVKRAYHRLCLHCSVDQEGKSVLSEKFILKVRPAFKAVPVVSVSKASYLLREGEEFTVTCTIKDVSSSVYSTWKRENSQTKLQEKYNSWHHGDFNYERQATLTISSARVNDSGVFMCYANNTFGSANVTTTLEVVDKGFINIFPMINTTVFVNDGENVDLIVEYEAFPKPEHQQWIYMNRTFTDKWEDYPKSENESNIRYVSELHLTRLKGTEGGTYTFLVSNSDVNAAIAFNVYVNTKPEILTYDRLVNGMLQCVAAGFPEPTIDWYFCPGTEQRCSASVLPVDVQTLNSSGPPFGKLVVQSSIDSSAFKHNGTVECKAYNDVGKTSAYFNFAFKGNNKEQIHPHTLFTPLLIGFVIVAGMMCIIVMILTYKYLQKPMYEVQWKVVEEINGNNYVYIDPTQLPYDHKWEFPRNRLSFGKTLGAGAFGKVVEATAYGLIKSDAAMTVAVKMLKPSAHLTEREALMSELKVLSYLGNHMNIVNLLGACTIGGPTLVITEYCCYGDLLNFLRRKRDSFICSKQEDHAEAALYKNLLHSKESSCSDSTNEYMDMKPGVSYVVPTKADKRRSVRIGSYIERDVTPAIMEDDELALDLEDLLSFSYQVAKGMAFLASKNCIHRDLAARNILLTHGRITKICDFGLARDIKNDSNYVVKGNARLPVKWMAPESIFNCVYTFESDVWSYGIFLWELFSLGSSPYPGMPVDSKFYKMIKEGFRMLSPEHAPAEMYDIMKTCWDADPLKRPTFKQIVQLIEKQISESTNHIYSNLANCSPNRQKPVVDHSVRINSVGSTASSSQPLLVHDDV
T2 sequence (Q8TDX7 whole entry): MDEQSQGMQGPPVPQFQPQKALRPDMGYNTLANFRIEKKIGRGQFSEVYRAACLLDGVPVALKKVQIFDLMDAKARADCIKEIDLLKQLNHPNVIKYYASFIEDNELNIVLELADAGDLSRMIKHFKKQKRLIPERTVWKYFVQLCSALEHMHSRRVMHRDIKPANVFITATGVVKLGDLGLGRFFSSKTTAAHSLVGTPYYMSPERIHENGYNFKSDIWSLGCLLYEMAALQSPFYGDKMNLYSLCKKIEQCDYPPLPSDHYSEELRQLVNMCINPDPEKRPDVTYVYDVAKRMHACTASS
T3 sequence (P00519 whole entry E255K): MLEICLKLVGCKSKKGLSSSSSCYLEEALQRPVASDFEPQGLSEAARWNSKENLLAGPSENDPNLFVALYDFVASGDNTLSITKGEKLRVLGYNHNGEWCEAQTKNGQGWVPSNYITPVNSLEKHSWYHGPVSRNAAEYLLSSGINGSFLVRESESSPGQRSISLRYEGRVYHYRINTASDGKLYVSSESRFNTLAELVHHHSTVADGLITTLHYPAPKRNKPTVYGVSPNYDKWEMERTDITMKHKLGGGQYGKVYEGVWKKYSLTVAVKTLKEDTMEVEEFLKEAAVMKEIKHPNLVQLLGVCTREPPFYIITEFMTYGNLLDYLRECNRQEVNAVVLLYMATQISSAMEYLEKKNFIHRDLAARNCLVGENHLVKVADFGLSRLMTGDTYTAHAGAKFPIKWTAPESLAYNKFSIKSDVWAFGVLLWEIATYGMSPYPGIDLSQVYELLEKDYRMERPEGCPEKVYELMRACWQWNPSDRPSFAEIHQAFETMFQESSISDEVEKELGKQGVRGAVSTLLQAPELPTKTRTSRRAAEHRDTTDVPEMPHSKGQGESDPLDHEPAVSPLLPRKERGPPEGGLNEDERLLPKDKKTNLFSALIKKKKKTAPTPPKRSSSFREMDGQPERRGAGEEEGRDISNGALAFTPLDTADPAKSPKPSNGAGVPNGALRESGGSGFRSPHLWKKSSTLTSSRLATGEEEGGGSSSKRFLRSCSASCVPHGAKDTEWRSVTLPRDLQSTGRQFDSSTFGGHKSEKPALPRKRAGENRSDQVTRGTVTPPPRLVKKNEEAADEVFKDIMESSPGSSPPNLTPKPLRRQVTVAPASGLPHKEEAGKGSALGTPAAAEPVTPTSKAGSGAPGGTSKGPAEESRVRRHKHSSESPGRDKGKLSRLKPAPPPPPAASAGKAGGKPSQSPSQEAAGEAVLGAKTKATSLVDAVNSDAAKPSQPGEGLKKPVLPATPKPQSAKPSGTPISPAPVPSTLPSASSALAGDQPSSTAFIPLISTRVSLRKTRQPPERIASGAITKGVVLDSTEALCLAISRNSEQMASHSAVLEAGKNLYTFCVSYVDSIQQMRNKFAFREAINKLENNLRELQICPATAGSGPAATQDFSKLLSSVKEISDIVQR
T6 sequence (P53350 whole entry): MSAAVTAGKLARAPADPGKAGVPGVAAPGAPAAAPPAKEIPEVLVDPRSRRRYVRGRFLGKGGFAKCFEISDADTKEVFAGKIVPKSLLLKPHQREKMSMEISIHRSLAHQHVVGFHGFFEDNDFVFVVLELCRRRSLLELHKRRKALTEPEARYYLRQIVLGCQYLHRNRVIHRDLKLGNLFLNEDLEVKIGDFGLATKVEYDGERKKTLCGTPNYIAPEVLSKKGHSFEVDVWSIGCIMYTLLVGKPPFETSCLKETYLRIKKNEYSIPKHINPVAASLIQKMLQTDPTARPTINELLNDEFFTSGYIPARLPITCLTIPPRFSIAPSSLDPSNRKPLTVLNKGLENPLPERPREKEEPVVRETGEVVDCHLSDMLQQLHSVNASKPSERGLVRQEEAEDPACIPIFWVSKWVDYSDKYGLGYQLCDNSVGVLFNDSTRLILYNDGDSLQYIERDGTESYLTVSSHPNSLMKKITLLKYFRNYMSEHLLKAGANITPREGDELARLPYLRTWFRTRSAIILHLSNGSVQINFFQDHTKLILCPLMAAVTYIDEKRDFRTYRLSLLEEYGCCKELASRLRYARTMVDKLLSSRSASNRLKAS

Regarding `CNc1nc(Nc2ccc(S(=O)(=O)N3CCC(N4CCOCC4)CC3)cc2OC)nc2[nH]cc(Cl)c12` [Compound 12, 5-chloro-N2-(2-methoxy-4-((4-morpholinopiperidin-1-yl)sulfonyl)phenyl)-N4-methyl-7H-pyrrolo[2,3-d]pyrimidine-2,4-diamine], the remaining binding at 1 µM on panel of 468 kinases [1] worked out at 95%; on panel of 468 kinases [2], 100%; at panel of 468 kinases [3], 92%; on panel of 468 kinases [4], 81%; at panel of 468 kinases [5] (KIT-autoinhibited), 95%; on panel of 468 kinases [5] (KIT), 100%. The remaining binding at 1 µM on panel of 468 kinases [6] was found to be 82%.
Regarding `CNc1nc(Nc2ccc(P3(=O)CCN(C4CCOCC4)CC3)cc2OC)nc2[nH]cc(Cl)c12` [Compound 77, 4-(4-((5-chloro-4-(methylamino)-7H-pyrrolo[2,3-d]pyrimidin-2-yl)amino)-3-methoxyphenyl)-1-(tetrahydro-2H-pyran-4-yl)-1,4-azaphosphinane 4-oxide], the remaining binding at 1 µM came to 98% on panel of 468 kinases [1]; 100% at panel of 468 kinases [2]; 100% at panel of 468 kinases [3]; 82% on panel of 468 kinases [4]; 93% on panel of 468 kinases [5] (KIT-autoinhibited); 99% on panel of 468 kinases [5] (KIT). The remaining binding at 1 µM on panel of 468 kinases [6] amounted to 86%.
On to `CNc1nc(Nc2ccc(C(=O)N3CCC(N4CCOCC4)CC3)c3c2OCO3)nc2[nH]cc(Cl)c12` [Compound 75, (7-((5-chloro-4-(methylamino)-7H-pyrrolo[2,3-d]pyrimidin-2-yl)amino)benzo[d][1,3]dioxol-4-yl)(4-morpholinopiperidin-1-yl)methanone], for which the remaining binding at 1 µM at panel of 468 kinases [1] worked out at 82%; on panel of 468 kinases [2] it was 99%; on panel of 468 kinases [3], 100%; on panel of 468 kinases [4], 81%; on panel of 468 kinases [5] (KIT-autoinhibited) it was 68%; on panel of 468 kinases [5] (KIT) it was 65%. In addition, the remaining binding at 1 µM at panel of 468 kinases [6] was found to be 78%.
